Usually IC50 stands for the point on the concentration scale where inhibition reaches its midpoint.

The assay deals with T1, vanilloid receptor (Rattus norvegicus, UniProt O35433).
T1 construct: DRG nerve cells from the primary culture of 2 days were equilibrated; endogenous in cells; host or cells: primary culture of dorsal root ganglion neurons from neonatal SD rats
T1 sequence (O35433 whole entry): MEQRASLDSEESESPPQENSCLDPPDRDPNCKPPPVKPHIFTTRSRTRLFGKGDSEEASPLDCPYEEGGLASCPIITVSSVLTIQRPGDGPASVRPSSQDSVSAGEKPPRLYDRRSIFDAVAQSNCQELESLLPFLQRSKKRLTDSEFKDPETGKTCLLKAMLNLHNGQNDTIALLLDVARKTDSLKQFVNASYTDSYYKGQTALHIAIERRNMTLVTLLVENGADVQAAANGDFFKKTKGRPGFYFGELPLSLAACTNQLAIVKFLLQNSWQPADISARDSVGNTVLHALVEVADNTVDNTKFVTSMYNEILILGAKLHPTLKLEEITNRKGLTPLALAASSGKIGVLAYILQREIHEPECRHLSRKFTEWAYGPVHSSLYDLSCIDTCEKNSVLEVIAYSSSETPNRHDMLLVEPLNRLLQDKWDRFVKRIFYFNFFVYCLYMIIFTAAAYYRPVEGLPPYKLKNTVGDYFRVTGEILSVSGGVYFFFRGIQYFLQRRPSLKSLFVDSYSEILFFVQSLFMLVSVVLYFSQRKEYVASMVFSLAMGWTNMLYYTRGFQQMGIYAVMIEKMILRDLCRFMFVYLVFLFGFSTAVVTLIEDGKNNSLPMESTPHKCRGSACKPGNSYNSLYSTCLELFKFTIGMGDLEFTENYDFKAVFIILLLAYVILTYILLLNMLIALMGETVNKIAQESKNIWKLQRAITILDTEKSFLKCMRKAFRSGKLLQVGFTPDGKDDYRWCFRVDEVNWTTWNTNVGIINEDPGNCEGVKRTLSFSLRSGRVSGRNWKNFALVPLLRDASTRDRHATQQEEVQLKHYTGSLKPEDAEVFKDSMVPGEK
Put plainly: 45Ca influx test in cultured neonatal rat DRG neurons, inhibition of capsaicin response. Type of assay: cell-based. To be noted: neonatal rat DRG neurons, capsaicin 0.5 μM, 45Ca influx; read-out: Antagonist Calcium Uptake Test (IC50). As for the experimental part: 1) Separation of Spinal Dorsal Root Ganglia (DRG) in Newborn Rats and Primary Culture Thereof
Neonatal (2-3 day old or younger than 2-3 day old) SD rats were put in ice for 5 minutes to anesthetize and disinfected with 70% ethanol. […] The DRG were incubated sequentially at 37° C. for 30 mins in 200 U/ml collagenase and 2.5 mg/ml trypsin, separately. The ganglia were washed twice with DME/F12 medium supplemented with 10% horse serum, triturated through a fire-polished Pasteur pipette, filtered through Nitex 80 membrane to obtain single cell suspension and the suspension was washed once more. This was subjected to centrifugation, then resuspended in cell culture medium at certain level of cell density. As the cell culture medium, DME/F12 medium supplemented with 10% horse serum was diluted with identical medium conditioned by C6 glioma cells 2 days on a confluent monolayer (1:1), and NGF (Nerve Growth Factor) was added to adjust 200 ng/ml as final concentration. After the cells were grown 2 days in medium where cytosine arabinoside (Ara-C, 100 μM) was added to kill dividing nonneuronal cells, medium was changed to one without Ara-C. The resuspended cells were plated at a density of 1500-2000 neurons/well onto Terasaki plates previously coated with 10 μg/ml poly-D-ornithine.
2) ^45Ca Influx Experiments
DRG nerve cells from the primary culture of 2 days were equilibrated by washing 4 times with HEPES (10 mM, pH 7.4)-buffered Ca^2+, Mg^2+-free HBSS (H-HBSS). The solution in each well was removed from the individual well. Medium containing the test compound plus capsaicin (final concentration 0.5 μM) and ^45Ca (final concentration 10 μCi/ml) in H-HBSS was added to each well and incubated at room temperature for 10 mins. Terasaki plates were washed five times with H-HBSS and dried at room temperature. To each well, 0.3% SDS (10 μl) was added to elute ^45Ca. After the addition of scintillation cocktail of into each well, the amount of ^45Ca influx into neuron was measured by counting radioactivity.
As for `CS(=O)(=O)Nc1ccc(CNC(=O)/C=C/c2ccc(C(F)(F)F)nc2Cl)cc1F` [Example 44, 3-(2-Chloro-6-trifluoromethyl-pyridin-3-yl)-N-(3-fluoro-4-methanesulfonylamino-benzyl)-acrylamide], the 50% inhibitory concentration (IC50) was over 10000 nM.

In the case of `CCN(CC)c1nc(C(F)(F)F)ccc1/C=C/C(=O)NCc1ccc(NS(C)(=O)=O)c(F)c1` [Example 47, 3-(2-Diethylamino-6-trifluoromethyl-pyridin-3-yl)-N-(3-fluoro-4-methanesulfonylamino-benzyl)-acrylamide], the half-inhibitory concentration (IC50) came out at 960 nM.

For `C#Cc1cc(CNC(=O)/C=C/c2cccnc2N2CCOCC2)cc(F)c1NS(C)(=O)=O` [Example 49, N-(3-Ethynyl-5-fluoro-4-methanesulfonylamino-benzyl)-3-(2-morpholin-4-yl-pyridin-3-yl)-acrylamide], the IC50 was 5400 nM.

As to `CS(=O)(=O)Nc1ccc(CNC(=O)/C=C/c2cccnc2N2CCOCC2)cc1F` [Example 50, N-(5-fluoro-4-methanesulfonylamino-benzyl)-3-(2-morpholin-4-yl-pyridin-3-yl)-acrylamide], the IC50 was over 10000 nM.

Take `C#Cc1cc(CNC(=O)/C=C/c2ccc(C(C)(C)C)nc2Cl)cc(F)c1NS(C)(=O)=O` [Example 51, 3-(6-tert-Butyl-2-chloro-pyridin-3-yl)-N-(3-ethynyl-5-fluoro-4-methanesulfonylamino-benzyl)-acrylamide]: the IC50 amounted to 140 nM.

In the case of `CS(=O)(=O)Nc1ccc(CNC(=O)/C=C/c2cnc(Cl)cc2C(F)(F)F)cc1F` [Example 53, 3-(6-Chloro-4-trifluoromethyl-pyridin-3-yl)-N-(3-fluoro-4-methanesulfonylamino-benzyl)-acrylamide], the half-inhibitory concentration (IC50) is over 10000 nM.

Turning to `CS(=O)(=O)Nc1ccc(CNC(=O)/C=C/c2ccc(C(F)(F)F)nc2N2CCCC2)cc1F` [Example 55, N-(3-Fluoro-4-methanesulfonylamino-benzyl)-3-(2-pyrrolidin-1-yl-6-trifluoromethyl-pyridin-3-yl)-acrylamide], the half-inhibitory concentration (IC50) was found to be 1400 nM.

Regarding `CS(=O)(=O)Nc1ccc(CNC(=O)/C=C/c2ccc(C(F)(F)F)nc2N2CCC(O)C2)cc1F` (stereo not shown) [Example 56, N-(3-Fluoro-4-methanesulfonylamino-benzyl)-3-[2-(3-hydroxy-pyrrolidin-1-yl)-6-trifluoromethyl-pyridin-3-yl]-acrylamide], the IC50 is over 10000 nM.

Regarding `CS(=O)(=O)Nc1ccc(CNC(=O)/C=C/c2ccc(C(F)(F)F)nc2)cc1F` [Example 58, N-(3-Fluoro-4-methanesulfonylamino-benzyl)-3-(6-trifluoromethyl-pyridin-3-yl)-acrylamide], the 50% inhibitory concentration (IC50) was over 10000 nM.

`C#Cc1cc(CNC(=O)/C=C/c2ccc(C(C)(C)C)nc2N2CCOCC2)cc(F)c1NS(C)(=O)=O` [Example 59, 3-(6-tert-Butyl-2-morpholin-4-yl-pyridin-3-yl)-N-(3-ethynyl-5-fluoro-4-methanesulfonylamino-benzyl)-acrylamide]: the half-inhibitory concentration (IC50) came out at 210 nM.

Turning to `COc1nc(C(F)(F)F)ccc1/C=C/C(=O)NCc1ccc(NS(C)(=O)=O)c(F)c1` [Example 60, N-(3-Fluoro-4-methanesulfonylamino-benzyl)-3-(2-methoxy-6-trifluoromethyl-pyridin-3-yl)-acrylamide], the concentration for half-maximal inhibition (IC50) was found to be 2100 nM.

As for `CS(=O)(=O)Nc1ccc(CNC(=O)/C=C/c2ccc(C(F)(F)F)nc2NCCO)cc1F` [Example 61, N-(3-Fluoro-4-methanesulfonylamino-benzyl)-3-[2-(2-hydroxy-ethylamino)-6-trifluoromethyl-pyridin-3-yl]-acrylamide], the half-maximal inhibitory concentration (IC50) amounted to 4900 nM.

For the molecule `C#Cc1cc(CNC(=O)/C=C/c2ccc(C(F)(F)F)nc2N2CCCC2)cc(F)c1NS(C)(=O)=O` [Example 62, N-(3-Ethynyl-5-fluoro-4-methanesulfonylamino-benzyl)-3-(2-pyrrolidin-1-yl-6-trifluoromethyl-pyridin-3-yl)-acrylamide], the 50% inhibitory concentration (IC50) worked out at 260 nM.

On to `CCCCOc1nc(C(F)(F)F)ccc1/C=C/C(=O)NCc1ccc(NS(C)(=O)=O)c(F)c1` [Example 63, 3-(2-Butoxy-6-trifluoromethyl-pyridin-3-yl)-N-(3-fluoro-4-methanesulfonylamino-benzyl)-acrylamide], for which the IC50 was 560 nM.

Consider `C#Cc1cc(CNC(=O)/C=C/c2ccc(C(F)(F)F)nc2N2CCN(C)CC2)cc(F)c1NS(C)(=O)=O` [Example 64, N-(3-Ethynyl-5-fluoro-4-methanesulfonylamino-benzyl)-3-[2-(4-methyl-piperazin-1-yl)-6-trifluoromethyl-pyridin-3-yl]-acrylamide], for which the IC50 worked out at 6500 nM.

`C#Cc1cc(CNC(=O)/C=C/c2ccc(C(F)(F)F)nc2OCCCC)cc(F)c1NS(C)(=O)=O` [Example 66, 3-(2-Butoxy-6-trifluoromethyl-pyridin-3-yl)-N-(3-ethynyl-5-fluoro-4-methanesulfonylamino-benzyl)-acrylamide]: the IC50 was 250 nM.

Turning to `C#Cc1cc(CNC(=O)/C=C/c2ccc(C(F)(F)F)nc2C)cc(F)c1NS(C)(=O)=O` [Example 68, N-(3-Ethynyl-5-fluoro-4-methanesulfonylaminobenzyl)-3-(2-methyl-6-trifluoromethylpyridin-3-yl)acrylamide], the half-maximal inhibitory concentration (IC50) was found to be 1300 nM.

On to `Cc1nc(C(F)(F)F)ccc1/C=C/C(=O)NCc1ccc(NS(C)(=O)=O)c(F)c1` [Example 69, N-(3-Fluoro-4-methanesulfonylaminobenzyl)-3-(2-methyl-6-trifluoromethylpyridin-3-yl)acrylamide], for which the IC50 turned out to be 3200 nM.

Consider `C#Cc1cc(CNC(=O)/C=C/c2ccc(C(F)(F)F)nc2OC(C)C)cc(F)c1NS(C)(=O)=O` [Example 70, 3-(2-Isopropoxy-6-trifluoromethyl-pyridin-3-yl)-N-(3-ethynyl-5-fluoro-4-methanesulfonylamino-benzyl)-acrylamide], for which the IC50 was 130 nM.

For `C#Cc1cc(CNC(=O)/C=C/c2ccc(C(F)(F)F)nc2N2CCC[C@H]2C(=O)OCc2ccccc2)cc(F)c1NS(C)(=O)=O` [Example 71, N-(3-Ethynyl-5-fluoro-4-methanesulfonylamino-benzyl)-3-[2-(2-benzyloxycarbonyl-pyrrolidin-1-yl)-6-trifluoromethyl-pyridin-3-yl]-acrylamide], the half-inhibitory concentration (IC50) is over 10000 nM.

With `C#Cc1cc(CNC(=O)/C=C/c2ccc(C(F)(F)F)nc2NCCCC)cc(F)c1NS(C)(=O)=O` [Example 72, 3-(2-Butylamino-6-trifluoromethyl-pyridin-3-yl)-N-(3-ethynyl-5-fluoro-4-methanesulfonylamino-benzyl)-acrylamide], the IC50 worked out at 160 nM.

Take `C#Cc1cc(CNC(=O)/C=C/c2ccc(C(F)(F)F)nc2NC2CCCC2)cc(F)c1NS(C)(=O)=O` [Example 73, 3-(2-Cyclopentylamino-6-trifluoromethyl-pyridin-3-yl)-N-(3-ethynyl-5-fluoro-4-methanesulfonylamino-benzyl)-acrylamide]: the IC50 was 150 nM.

Take `C#Cc1cc(CNC(=O)/C=C/c2ccc(C(F)(F)F)nc2OCC(C)C)cc(F)c1NS(C)(=O)=O` [Example 74, N-(3-Ethynyl-5-fluoro-4-methanesulfonylamino-benzyl)-3-(2-isobutoxy-6-trifluoromethyl-pyridin-3-yl)-acrylamide]: the half-maximal inhibitory concentration (IC50) came to 510 nM.

For `C#Cc1cc(CNC(=O)/C=C/c2cc(Cl)c(C(F)(F)F)nc2CCCC)cc(F)c1NS(C)(=O)=O` [Example 76, 3-(2-Butyl-5-chloro-6-trifluoromethyl-pyridin-3-yl)-N-(3-ethynyl-5-fluoro-4-methanesulfonylamino-benzyl)-acrylamide], the IC50 was found to be 200 nM.

Consider `C#Cc1cc(CNC(=O)/C=C/c2ccc(C(F)(F)F)nc2OC(C)CC)cc(F)c1NS(C)(=O)=O` (stereo not shown) [Example 77, 3-(2-sec-Butoxy-6-trifluoromethyl-pyridin-3-yl)-N-(3-ethynyl-5-fluoro-4-methanesulfonylamino-benzyl)-acrylamide], for which the 50% inhibitory concentration (IC50) stood at 340 nM.

Turning to `C#Cc1cc(CNC(=O)/C=C/c2ccc(C(F)(F)F)nc2Oc2ccccc2)cc(F)c1NS(C)(=O)=O` [Example 78, N-(3-Ethynyl-5-fluoro-4-methanesulfonylamino-benzyl)-3-(2-phenoxy-6-trifluoromethyl-pyridin-3-yl)-acrylamide], the IC50 is 120 nM.

For the molecule `C#Cc1cc(CNC(=O)/C=C/c2ccc(C(F)(F)F)nc2OC2CCOC2)cc(F)c1NS(C)(=O)=O` (stereo not shown) [Example 79, 3-[2-(Tetrahydro-furan-3-yloxy)-6-trifluoromethyl-pyridin-3-yl]-N-(3-ethynyl-5-fluoro-4-methanesulfonylamino-benzyl)-acrylamide], the IC50 turned out to be 430 nM.

Consider `C#Cc1cc(CNC(=O)/C=C/c2ccc(C(F)(F)F)nc2-n2cccn2)cc(F)c1NS(C)(=O)=O` [Example 80, N-(3-Ethynyl-5-fluoro-4-methanesulfonylamino-benzyl)-3-[2-pyrazol-1-yl-6-trifluoromethyl-pyridin-3-yl]-acrylamide], for which the half-inhibitory concentration (IC50) was 3100 nM.
